Results on five compounds are retold here after US6916832B2, “Chromeno[4,3,2-de]isoquinolines as potent dopamine receptor ligands” (University of North Carolina at Chapel Hill, priority 1999, dated 2005).

Each structure is given as a SMILES string.

One test has as its target T1, cloned human D4 receptor (Homo sapiens, UniProt P21917).
T1 construct: expressed in transfected cells; host or cells: not specified (e.g. C-6 glioma or CHO cells)
T1 sequence (P21917 1-419): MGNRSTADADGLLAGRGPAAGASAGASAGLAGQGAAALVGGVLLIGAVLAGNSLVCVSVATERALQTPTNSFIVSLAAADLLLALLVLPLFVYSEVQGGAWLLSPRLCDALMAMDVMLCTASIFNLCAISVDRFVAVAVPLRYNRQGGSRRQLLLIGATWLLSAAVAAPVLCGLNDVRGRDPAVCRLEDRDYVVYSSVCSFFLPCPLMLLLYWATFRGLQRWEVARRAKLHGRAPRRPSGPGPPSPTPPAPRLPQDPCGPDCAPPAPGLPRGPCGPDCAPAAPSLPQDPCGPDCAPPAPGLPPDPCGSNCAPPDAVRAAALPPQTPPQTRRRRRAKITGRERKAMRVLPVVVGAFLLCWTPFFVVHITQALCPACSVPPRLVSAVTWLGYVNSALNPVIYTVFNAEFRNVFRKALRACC
The test is described as follows: Radioreceptor binding, cloned human D4 receptor. To be noted: read-out: K0.5 at the cloned human D4 receptor.

The test system of a further test is D1 and D2 receptors. The test is described as follows: D1:D2 selectivity from receptor binding. The method, then:
Frozen rat striata was homogenized by seven manual strokes in a Wheaton Teflon-glass homogenizer in 8 ml ice cold 50 mM HEPES buffer with 4.0 mM MgCl2, (pH 7.4). The tissue was centrifuged at 27,000×g for 10 min, the supernatant was discarded, and the pellet was homogenized (5 strokes) and resuspended in ice cold buffer and centrifuged again. The final pellet was suspended at a concentration of approximately 2.0 mg wet weight/ml. The amount of tissue added to each assay tube was 1.0 mg, in a final assay volume of 1.0 ml. D1 receptors were labeled with [^3H] SCH23390 (0.30 nM). D2 receptors were labeled with [^3H] spiperone (0.07 nM); unlabeled ketanserin (50 nM) was added to mask binding to 5HT2 sites. Total binding was defined as radioligand bound in the absence of any competing drug. Nonspecific binding was estimated by adding unlabeled SCH23390 (1 μM) or unlabeled chlorpromazine ([…]) for D1 and D2 receptor binding assays, respectively. Triplicate determinations were made for each drug concentration in each assay. Assay tubes were incubated at 37° C. for 15 minutes. Binding was terminated by filtering with ice cold buffer on a Skatron 12 well cell harvester (Skatron, Inc., Sterling, Va.) using glass fiber filter mats (Skatron no. 7034). […] After shaking for 30 minutes, radioactivity was determined on a LKB Wallac 1219 RackBeta liquid scintillation counter (Wallac, Gaithersburg, Md.). […]

Test [1] relates to MPTP-treated monkey model. To be noted: cited from earlier work.
Test [2] addresses T2, D1 receptors (Rattus norvegicus, UniProt P18901).
T2 construct: Frozen rat striata was homogenized by seven manual strokes; from tissue; host or cells: rat striatum
The test is described as follows: cAMP production in rat striatum homogenate. Format: biochemical. The settings on record: rat striatum / rat striatal membranes, relative to dopamine. As to the method: Frozen striatal tissue (ca. 40 mg) was homogenized in 4 ml of buffer (5 mM Hepes, 2 mM EGTA, pH 7.5) using 10 strokes in a Wheaton Teflon-glass homogenizer. Four ml of 50 mM Hepes with 2 mM EGTA buffer (pH 7.5) was added, and the tissue was homogenized by an additional 3 strokes. A 20 μl aliquot of this tissue homogenate was added to a prepared reaction. The reaction mixture consisted of 100 mM Hepes (pH 7.4), 100 mM NaCl, 4 mM MgCl2, 2 mM EDTA, 500 μM isobutyl methylxanthine (IBMX), 0.01% ascorbic acid, 10 μM pargyline, 2 mM ATP, 5 μM GTP, 20 mM phosphocreatine, 5 units of creatine phosphokinase (CPK), and selected concentrations of DA. The final reaction volume was 100 μl. Basal cAMP activity was determined by incubation of tissue in the reaction mixture with no drug added. Tubes were assayed in duplicate. After a 15 min incubation at 30° C., the reaction was stopped with the addition of 500 μl of 0.1 N HCl. Tubes were vortexed briefly, and then spun in a BHG Hermle Z 230 M microcentrifuge for five min at 15,000×g to eliminate large particles. The concentration of cAMP in each sample was determined with an RIA of acetylated cAMP, modified from that previously described (Harper and Brooker, 1975). Iodination of cAMP was performed using a method described previously (Patel and Linden, 1988). Assay buffer was 50 mM sodium acetate buffer with 0.1% sodium azide (pH 4.75). Standard curves of cAMP were prepared in buffer at concentrations of 2 to 500 fmoles/assay tube. To improve assay sensitivity, all samples and standards were acetylated with 10 μl of a 2:1 solution of triethylamine:acetic anhydride. Samples were assayed in duplicate. Each assay tube contained 100 μl of diluted sample, 100 μl of primary antibody (sheep, anti-cAMP, 1:100,000 dilution with 1% BSA in buffer) and 100 μl of [^125I]-cAMP (50,000 dpm/100 μl of buffer); total assay volume was 300 μl. Tubes were vortexed and stored at 4° C. overnight (approx. 18 hr). Antibody-bound radioactivity was then separated by the addition of 25 μL of BioMag rabbit, anti-goat IgG (Advanced Magnetics, Cambridge Mass.), followed by vortexing and further incubation at 4° C. for 1 hr. To these samples 1 ml of 12% polyethylene glycol/50 mM sodium acetate buffer (pH 6.75) was added and all tubes were centrifuged at 1700×g for 10 min. Supernatants were aspirated and radioactivity in the resulting pellet was determined using an LKB Wallac gamma counter (Gaithersburg, Md.). Data were calculated for each sample, and expressed initially as pmol/mg/min cAMP. […] Normalized dose-response curves were analyzed by nonlinear regression using an algorithm for sigmoid curves in the curvefitting program InPlot (Graphpad, Inc.; San Francisco, Calif.). […]
(Changes in cAMP serve as a functional read-out for many G protein-coupled receptors.)

Test [3] concerns the target T3, D1 receptors (Macaca mulatta, UniProt O77680).
T3 construct: expressed in transfected cells; host or cells: C-6 glioma cells (C-6-mD1)
The test is described as follows: cAMP production in C-6-mD1 cells (cloned expressed primate D1A receptors). In kind it is cell-based. To be noted: C-6-mD1 cells / cloned expressed primate D1A receptors, relative to dopamine. The method, then: Radioreceptor and function studies were also conducted for cloned human or monkey receptors transfected into one of several cell lines [e.g., C-6 glioma or Chinese hamster ovary (CHO) cells]. Cells were grown in appropriate medium, and at confluency, harvested for membrane preparation. Flasks of cells in the same passage were scraped using a rubber policeman and collected in 50 ml centrifuge tubes. These were spun for 10 min at 1200×g, to pellet whole cells. The supernatant was discarded and then five ml of PBS (phosphate buffered saline)/flask was added to the centrifuge tubes to resuspend the cells. The tubes were then centrifuged again for […] at 28,500×g. The PBS was removed and the pellet suspended in a solution of 10% DMSO in PBS. Cells were homogenized with a polytron for 10 seconds on setting 5. One ml aliquots were stored at −80° C. until use in receptor binding studies. Aliquots contained approximately 1 mg/ml of protein, as measured using the BCA protein assay reagent (Pierce, Rockford, Ill.). Agonist intrinsic activity was assessed by the ability of selected compounds to stimulate adenylate cyclase, as measured by cAMP formation in whole cells. In C-6 cells, for example, the dose response curve for each drug was fit using a sigmoid function to determine maximal effective concentration (top plateau of curve) as well as EC50s. All drugs were run in the same assay in order to decrease variability across cell passages. Confluent plates of cells were incubated with drugs dissolved in DMEM-H plain media supplemented with 20 mM Hepes, 0.01% ascorbic acid and 500 μM iso-butyl-methyl xanthine (IBMX; pH 7.2; media A). The final volume for each well was 500 μl. In addition to the dose response curves run for each drug, basal levels of cAMP and isoproterenol-stimulated (through endogenous β2 receptors, positive control) cAMP levels were evaluated for each plate. Each condition was run in duplicate wells. Following a 10 min incubation at 37° C., cells were rinsed briefly with media, and the reaction stopped with the addition of 500 μl 0.1 N HCl. Cells were then allowed to chill for 5-10 min at 4° C., the wells were scraped and the volume placed into 1.7 ml centrifuge tubes. An additional 1 ml of 0.1 N HCl was added to each tube, for a final volume of 1.5 ml/tube. Tubes were vortexed briefly, and then spun in a BHG Hermle Z 230 M microcentrifuge for five min at 15,000×g to eliminate large cellular particles. Cyclic AMP levels for each sample were determined as described above. Data were calculated for each sample, and expressed initially as pmol/mg/min cAMP. […] Normalized dose-response curves were analyzed by nonlinear regression using an algorithm for sigmoid curves in the curvefitting program InPlot (Graphpad, Inc.; San Francisco, Calif.). […]

In a further test the target is D1 receptor (Homo sapiens, UniProt P21728). To be noted: preparations with decreased receptor reserve; cited from earlier work.
For another test, the system named is D2-like receptors. The test is described as follows: Functional selectivity at D2-like receptors in rats (in vivo or in vitro). Details: species or system rat.

T2 sequence (P18901 whole entry): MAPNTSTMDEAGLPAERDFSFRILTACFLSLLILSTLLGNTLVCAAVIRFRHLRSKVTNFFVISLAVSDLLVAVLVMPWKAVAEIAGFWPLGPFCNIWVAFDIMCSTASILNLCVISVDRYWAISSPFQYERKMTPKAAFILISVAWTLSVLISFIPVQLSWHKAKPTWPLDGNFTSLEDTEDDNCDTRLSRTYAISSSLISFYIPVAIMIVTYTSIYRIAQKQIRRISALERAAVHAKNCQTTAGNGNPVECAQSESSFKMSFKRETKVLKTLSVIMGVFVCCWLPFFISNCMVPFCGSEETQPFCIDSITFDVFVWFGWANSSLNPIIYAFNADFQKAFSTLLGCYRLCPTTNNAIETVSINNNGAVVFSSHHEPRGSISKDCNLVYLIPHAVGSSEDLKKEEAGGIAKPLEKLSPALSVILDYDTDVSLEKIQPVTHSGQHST
T3 sequence (O77680 whole entry): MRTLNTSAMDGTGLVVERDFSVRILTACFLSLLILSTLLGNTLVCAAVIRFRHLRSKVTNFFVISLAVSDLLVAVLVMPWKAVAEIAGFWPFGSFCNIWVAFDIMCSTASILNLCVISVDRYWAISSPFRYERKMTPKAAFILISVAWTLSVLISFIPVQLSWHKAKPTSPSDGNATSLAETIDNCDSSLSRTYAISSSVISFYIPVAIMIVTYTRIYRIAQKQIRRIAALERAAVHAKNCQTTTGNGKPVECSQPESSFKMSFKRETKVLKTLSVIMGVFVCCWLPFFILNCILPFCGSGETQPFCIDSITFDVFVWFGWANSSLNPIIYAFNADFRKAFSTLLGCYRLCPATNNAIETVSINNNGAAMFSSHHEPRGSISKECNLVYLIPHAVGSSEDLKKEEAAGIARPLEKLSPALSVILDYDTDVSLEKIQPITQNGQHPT
Chain of D1 receptor (P21728 whole entry): as the sequence (O77680 whole entry) above, with I311N counted along it
Procedure for cloned human D4 receptor: Cells were grown in appropriate medium, and at confluency, harvested for membrane preparation. Flasks of cells in the same passage were scraped using a rubber policeman and collected in 50 ml centrifuge tubes. These were spun for 10 min at 1200×g, to pellet whole cells. The supernatant was discarded and then five ml of PBS (phosphate buffered saline)/flask was added to the centrifuge tubes to resuspend the cells. The tubes were then centrifuged again for min at 28,500×g. The PBS was removed and the pellet suspended in a solution of 10% DMSO in PBS. Cells were homogenized with a polytron for 10 seconds on setting 5. One ml aliquots were stored at −80° C. until use in receptor binding studies. Aliquots contained approximately 1 mg/ml of protein, as measured using the BCA protein assay reagent (Pierce, Rockford, Ill.). […]

In the case of `Oc1ccc2c(c1O)Cc1cccc3c1C2CNC3` (racemic) [dinapsoline, (±)-8,9-dihydroxy-2,3,7,11b-tetrahydro-1H-naphtho[1,2,3-de]isoquinoline, reference compound], the Ki at cloned human D4 receptor was more than 1000 nM. Further, the “D1:D2 selectivity” value in the test on D1 and D2 receptors is on record as “five-fold”.
Consider `NC[C@@H]1O[C@H](C23CC4CC(CC(C4)C2)C3)Cc2c1ccc(O)c2O` [Example A-77636], for which, in test [1], the antiparkinsonian effects entry is given as “exceptional antiparkinsonian effects”.
As for `Oc1cc2c(cc1O)C(c1ccccc1)CNCC2` (single isomer, unassigned; (+)) [(+)-SKF 38393, reference compound], the “agonist intrinsic activity at D1 receptors” value (“agonist intrinsic activity” below) at D1 receptors [2] and at D1 receptors [3] was “partial agonist” throughout.
With `C=CCN1CCc2c(cc(O)c(O)c2Cl)C(c2ccccc2)C1` (centres unmarked) [SKF82958], the “intrinsic efficacy at D1 receptor” value on D1 receptor was “not to have full intrinsic efficacy”.
`Oc1cc2c(cc1O)[C@H]1c3ccccc3CN[C@@H]1CC2` (racemic) [dihydrexidine, (±)-trans-10,11-dihydroxy-5,6,6a,7,8,12b-hexahydrobenzo[a]phenanthridine]: the antiparkinsonian effects result in test [1] is “exceptional antiparkinsonian effects”. For the same compound, the “agonist intrinsic activity” value at D1 receptors [2] is reported as “full agonist”. Moreover, in the test on D2-like receptors, the “activity at D2-like receptors located post-synaptically” value was “agonist” and the “activity at D2-like receptors located pre-synaptically” value is “antagonist”. The “agonist intrinsic activity” value on D1 receptors [3] is listed as “full agonist”.
